What was measured:
Format in all cases: functional
Rhodococcus rhodochrous [1] = test: Antibacterial activity against Rhodococcus rhodochrous MTCC 265 at 2.5 mg/ml after 24 hrs by Kirby-Bauer single disc susceptibility test; settings: MTCC 265, 24 h, read-out: DIZ
Rhodococcus rhodochrous [2] = test: Antibacterial activity against Rhodococcus rhodochrous MTCC 265 at 5 mg/ml after 24 hrs by Kirby-Bauer single disc susceptibility test; settings: MTCC 265, 24 h, read-out: DIZ
Escherichia coli [3] = test: Antibacterial activity against Escherichia coli DH5[alpha] at 2.5 mg/ml after 24 hrs by Kirby-Bauer single disc susceptibility test; settings: read-out: DIZ
Escherichia coli [4] = test: Antibacterial activity against Escherichia coli DH5[alpha] at 5 mg/ml after 24 hrs by Kirby-Bauer single disc susceptibility test; settings: read-out: DIZ

SMILES: Cn1c(O)c(C(=O)/C=C/c2ccc(OCc3cn(-c4ccc(F)cc4)nn3)cc2)c(=O)n(C)c1=O
- zone of inhibition at 2500 µg/mL (Rhodococcus rhodochrous [1]): 0 mm
- zone of inhibition at 5000 µg/mL (Rhodococcus rhodochrous [2]): 0 mm
- zone of inhibition at 2500 µg/mL (Escherichia coli [3]): 0 mm
- zone of inhibition at 5000 µg/mL (Escherichia coli [4]): 0 mm

SMILES: Cn1c(O)c(C(=O)/C=C/c2ccc(OCc3cn(-c4ccccc4)nn3)cc2)c(=O)n(C)c1=O
- zone of inhibition at 2500 µg/mL (Rhodococcus rhodochrous [1]): 4 mm
- zone of inhibition at 5000 µg/mL (Rhodococcus rhodochrous [2]): 3 mm
- zone of inhibition at 2500 µg/mL (Escherichia coli [3]): 4 mm
- zone of inhibition at 5000 µg/mL (Escherichia coli [4]): 3 mm

SMILES: COc1cccc(-n2cc(COc3ccc(/C=C/C(=O)c4c(O)n(C)c(=O)n(C)c4=O)cc3)nn2)c1
- zone of inhibition at 2500 µg/mL (Rhodococcus rhodochrous [1]): 3 mm
- zone of inhibition at 5000 µg/mL (Rhodococcus rhodochrous [2]): 2 mm
- zone of inhibition at 2500 µg/mL (Escherichia coli [3]): 3 mm
- zone of inhibition at 5000 µg/mL (Escherichia coli [4]): 3.5 mm

SMILES: Cc1cccc(-n2cc(COc3ccc(/C=C/C(=O)c4c(O)n(C)c(=O)n(C)c4=O)cc3)nn2)c1
- zone of inhibition at 2500 µg/mL (Rhodococcus rhodochrous [1]): 3 mm
- zone of inhibition at 5000 µg/mL (Rhodococcus rhodochrous [2]): 2 mm
- zone of inhibition at 2500 µg/mL (Escherichia coli [3]): 2 mm
- zone of inhibition at 5000 µg/mL (Escherichia coli [4]): 2 mm

SMILES: Cn1c(O)c(C(=O)/C=C/c2ccc(OCc3cn(-c4ccc(Br)cc4)nn3)cc2)c(=O)n(C)c1=O
- zone of inhibition at 2500 µg/mL (Rhodococcus rhodochrous [1]): 3 mm
- zone of inhibition at 5000 µg/mL (Rhodococcus rhodochrous [2]): 2 mm
- zone of inhibition at 2500 µg/mL (Escherichia coli [3]): 0 mm
- zone of inhibition at 5000 µg/mL (Escherichia coli [4]): 0 mm

SMILES: Cn1c(O)c(C(=O)/C=C/c2ccc(OCc3cn(-c4ccc(Cl)cc4)nn3)cc2)c(=O)n(C)c1=O
- zone of inhibition at 2500 µg/mL (Rhodococcus rhodochrous [1]): 0 mm
- zone of inhibition at 5000 µg/mL (Rhodococcus rhodochrous [2]): 0 mm
- zone of inhibition at 2500 µg/mL (Escherichia coli [3]): 0 mm
- zone of inhibition at 5000 µg/mL (Escherichia coli [4]): 0 mm

SMILES: Cn1c(O)c(C(=O)/C=C/c2ccc(OCc3cn(Cc4ccccc4)nn3)cc2)c(=O)n(C)c1=O
- zone of inhibition at 2500 µg/mL (Rhodococcus rhodochrous [1]): 2 mm
- zone of inhibition at 5000 µg/mL (Rhodococcus rhodochrous [2]): 2 mm
- zone of inhibition at 2500 µg/mL (Escherichia coli [3]): 0 mm
- zone of inhibition at 5000 µg/mL (Escherichia coli [4]): 0 mm

SMILES: COc1ccc(-n2cc(COc3ccc(/C=C/C(=O)c4c(O)n(C)c(=O)n(C)c4=O)cc3)nn2)cc1
- zone of inhibition at 2500 µg/mL (Rhodococcus rhodochrous [1]): 2 mm
- zone of inhibition at 5000 µg/mL (Rhodococcus rhodochrous [2]): 2 mm
- zone of inhibition at 2500 µg/mL (Escherichia coli [3]): 0 mm
- zone of inhibition at 5000 µg/mL (Escherichia coli [4]): 0 mm

Reference: ChEMBL document CHEMBL3046713, “Synthesis and antimicrobial activity of pyrimidine chalcones” (2013)
